The values below come from article PMC11116543, “Computer-aided pattern scoring – A multitarget dataset-driven workflow to predict ligands of orphan targets” (Scientific Data, 2024).

The IC50 is the point on the concentration scale where inhibition reaches its midpoint. Lower therefore signals greater potency in that assay.

Experiment [1] has as its system ABCB1, ABCC1, and ABCG2. As to the kind of experiment: Specificity screen against other ABC transporters: calcein AM (A2780/ADR), daunorubicin (H69AR) and pheophorbide A (MDCK II BCRP) assays. It is filed as cell-based. Conditions: 10 µM compound; Supplementary Fig. S3; result in words. The text has this:
Apart from the high hit rate, potency, and structural diversity of the output molecules, it is important to note that the multitarget dataset cross-annotated the molecular-structural and physicochemical information of ligands on a multitude of targets. In order to assess its ABCA-specificity, we tested the hit compounds 4, 7, 8, 11, 13, 28, 29, 30, 32, 41, 46, 47, 50, 58, and 59 against ABC transporters of three different subfamilies, namely ABCB1, ABCC1, and ABCG2[40]. […] On the other hand, it is unlikely that the compounds bear selectivity toward ABCA1, which can be seen as opportunity to explore other ABCA transporters as well, and warrants future investigations.
Suppl ementary Fig. 3 Biological Assessment of hi t compounds 4 , 7, 8 , 11 , 13 , 28, 29, 30, 32,
cal ce i n AM (a), daunorubicin (b), and pheophorbide A (c) assays using ABCB1-expressing
A 2780/ A DR (a), A BCC 1- expressi ng H 69A R (b), and ABCG2-expressing MDCK II BCRP (c) cells as
2. Möhl e, L. , et al . ABC Transporter C1 Prevents Dimethyl Fumarate from Targeting
Alzheimer's Disease. Biology (Basel) 12 ( 7) , 932,
(1 picture or pasted object on this page, not shown here)

The target in experiment [2] is ABCA1 (Mus musculus, UniProt P41233). As to the kind of experiment: cell-based.
Chain of ABCA1 (P41233 whole entry): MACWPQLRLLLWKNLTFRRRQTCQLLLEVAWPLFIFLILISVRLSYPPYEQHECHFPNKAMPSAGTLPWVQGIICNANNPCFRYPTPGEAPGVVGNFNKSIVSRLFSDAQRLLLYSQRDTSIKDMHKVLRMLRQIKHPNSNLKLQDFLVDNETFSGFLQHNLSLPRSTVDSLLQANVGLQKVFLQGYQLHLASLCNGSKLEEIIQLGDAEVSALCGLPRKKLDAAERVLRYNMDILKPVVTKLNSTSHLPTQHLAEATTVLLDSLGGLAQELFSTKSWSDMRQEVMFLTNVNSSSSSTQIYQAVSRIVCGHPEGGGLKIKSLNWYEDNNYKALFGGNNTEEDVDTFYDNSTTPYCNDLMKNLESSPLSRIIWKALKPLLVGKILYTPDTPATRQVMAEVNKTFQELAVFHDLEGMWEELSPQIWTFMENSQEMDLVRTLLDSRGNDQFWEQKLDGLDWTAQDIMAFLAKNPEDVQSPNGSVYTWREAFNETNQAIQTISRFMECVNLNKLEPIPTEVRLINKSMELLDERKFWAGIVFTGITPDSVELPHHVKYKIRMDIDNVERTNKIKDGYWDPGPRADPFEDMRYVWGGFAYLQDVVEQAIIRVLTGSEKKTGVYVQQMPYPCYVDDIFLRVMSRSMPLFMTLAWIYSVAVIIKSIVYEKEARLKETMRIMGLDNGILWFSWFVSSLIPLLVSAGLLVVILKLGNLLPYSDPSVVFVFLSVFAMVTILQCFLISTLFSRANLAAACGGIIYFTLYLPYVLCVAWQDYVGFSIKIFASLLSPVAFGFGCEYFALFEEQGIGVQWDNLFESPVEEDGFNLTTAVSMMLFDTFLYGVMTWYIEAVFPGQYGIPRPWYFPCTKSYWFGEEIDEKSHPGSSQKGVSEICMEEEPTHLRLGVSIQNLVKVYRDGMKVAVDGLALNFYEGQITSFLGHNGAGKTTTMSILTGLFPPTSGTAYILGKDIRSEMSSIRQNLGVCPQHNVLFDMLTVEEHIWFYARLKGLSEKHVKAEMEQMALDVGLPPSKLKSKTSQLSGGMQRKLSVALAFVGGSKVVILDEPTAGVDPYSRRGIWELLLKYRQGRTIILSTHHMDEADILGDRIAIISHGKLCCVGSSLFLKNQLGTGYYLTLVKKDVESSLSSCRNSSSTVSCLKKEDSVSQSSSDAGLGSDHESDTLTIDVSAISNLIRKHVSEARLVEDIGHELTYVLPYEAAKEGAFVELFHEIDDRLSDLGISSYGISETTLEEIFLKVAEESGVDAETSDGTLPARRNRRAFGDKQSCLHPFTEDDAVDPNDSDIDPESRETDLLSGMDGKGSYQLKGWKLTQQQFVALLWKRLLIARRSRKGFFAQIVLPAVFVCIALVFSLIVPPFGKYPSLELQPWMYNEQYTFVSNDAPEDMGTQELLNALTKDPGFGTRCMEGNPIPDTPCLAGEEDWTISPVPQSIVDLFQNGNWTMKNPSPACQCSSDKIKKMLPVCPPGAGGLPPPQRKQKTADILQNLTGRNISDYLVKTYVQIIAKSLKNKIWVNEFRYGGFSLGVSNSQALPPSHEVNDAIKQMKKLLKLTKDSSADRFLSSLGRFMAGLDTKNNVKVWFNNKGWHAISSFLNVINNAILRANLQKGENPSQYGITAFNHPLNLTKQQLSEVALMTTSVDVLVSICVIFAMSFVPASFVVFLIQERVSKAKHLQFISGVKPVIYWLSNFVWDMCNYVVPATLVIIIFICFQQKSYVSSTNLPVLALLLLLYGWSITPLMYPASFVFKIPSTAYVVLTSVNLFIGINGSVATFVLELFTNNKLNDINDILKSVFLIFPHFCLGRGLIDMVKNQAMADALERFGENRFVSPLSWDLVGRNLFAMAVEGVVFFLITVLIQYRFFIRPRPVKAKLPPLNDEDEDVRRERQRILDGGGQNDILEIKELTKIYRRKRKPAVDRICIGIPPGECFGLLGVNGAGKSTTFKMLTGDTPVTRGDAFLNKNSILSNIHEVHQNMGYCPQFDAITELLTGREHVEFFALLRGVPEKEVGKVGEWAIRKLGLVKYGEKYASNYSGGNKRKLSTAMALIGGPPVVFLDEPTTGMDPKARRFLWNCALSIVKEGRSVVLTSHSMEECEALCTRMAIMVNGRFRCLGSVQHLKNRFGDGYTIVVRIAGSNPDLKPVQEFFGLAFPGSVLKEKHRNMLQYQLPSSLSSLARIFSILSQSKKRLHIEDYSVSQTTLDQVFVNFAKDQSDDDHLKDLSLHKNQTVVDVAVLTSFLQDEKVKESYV
Experimental: In order to validate the prediction capabilities of the presented workflow, these 66 molecules were assessed in one of the most commonly used assessment platforms for ABCA1 function[21], namely a 25-NBD-cholesterol assay and ABCA1-expressing murine J774A.1 macrophages [TB-67, American Type Culture Collection (ATCC); cultured in Dulbecco’s modified eagle medium (DMEM; Biowest, Nuaillé, France)].
Where [3] appears, read: IC50, full concentration-effect curves, Fig. 4(b), mean ± SEM of at least three independent experiments, J774A.1 cells.

Read-outs that look alike come from different tables or passages of the source.

On to `COc1ccc2c(N3C[C@H](O)[C@H](O)CC4(CCCC4)C3)ncnc2c1F` [Compound 59], for which, in experiment [1], the “inhibition of other ABC transporters (ABCB1, ABCC1, ABCG2)” value is listed as “significant inhibition against either two or three of the assessed transporters”. Further, the IC50 in experiment [2] amounted to 9.12 ± 2.9 µM; in experiment [2] (setting [3]), 21.2 ± 0.6 µM.

As for `COc1cc(OC)c2cc(C(=O)N3C[C@@H](O)CC4(CCCC4)C3)[nH]c2c1OC` [Compound 47], the 50% inhibitory concentration (IC50) in experiment [2] stood at 21.5 ± 3.4 µM; in experiment [2] (setting [3]), 18.9 ± 2.3 µM.

Turning to `COCCc1ccc(OCC(O)CNC(=O)C2CC(F)(F)CCC2(C)C)cc1` (centres unmarked) [Compound 11], the “inhibition of other ABC transporters (ABCB1, ABCC1, ABCG2)” value in experiment [1] is reported as “least inhibition of other ABC transporters”. Also, the concentration for half-maximal inhibition (IC50) amounted to 5.08 ± 0.62 µM in experiment [2] and 8.76 ± 1.04 µM in experiment [2] (setting [3]).
